In US4183954A, “Benzoic acid derivatives and therapeutic composition containing the same” (Seuref A.G., priority 1977, dated 1980):

What was measured:
[1] = system: hepatic steatosis and hypercholesterolemia induced by Handler's steatogenic diet; assay: Anti-steatotic activity (Handler's steatogenic diet); format: in vivo; settings: rats, 50 mg/kg daily
Procedure: Administration of the test material to rats at a daily dosage of 50 mg/kg inhibits the hepatic steatosis and the hypercholesterolemia induced by Handler's steatogenic diet.

[2] = system: oedema of the rat's paw induced by dextran; assay: Antiphlogistic activity, oedema of the rat's paw induced by dextran; format: in vivo
[3] = system: experimental phlogistic reaction; assay: Antiphlogistic activity, experimental phlogistic reaction; format: in vivo; settings: rats, intraperitoneal or oral, 50 mg/kg to 300 mg/kg
Procedure: Intraperitoneal or oral administration of the test material at dosages within the range of from 50 mg/kg to 300 mg/kg inhibits the experimental phlogistic reaction induced in rats.

[4] = system: oedema of the rat's paw induced by carageenin; assay: Antiphlogistic activity, oedema of the rat's paw induced by carageenin; format: in vivo
[5] = system: hypercholesterolemia induced by Twin-Triton; assay: Hypocholesterolemic activity (Twin-Triton-induced hypercholesterolemia); format: in vivo; settings: rats, 200 mg/kg Twin-Triton i.p.
[6] = Chronic toxicity test, 3 months; format: in vivo, rats
Excerpt: The chronic toxicity tests confirmed the low toxicity of the product.

choleresis = assay: Choleretic activity; format: in vivo; settings: rats
[7] = system: granulomatous reaction induced by the sub-cutaneous penetration of foreign bodies; assay: Experimental granuloma test; format: in vivo
[8] = Acute toxicity (LD50), method of Lichtfield and Wilcoxon, mice; settings: mouse, in vivo
[9] = system: anaphylactic reaction and death induced in guinea-pigs sensitized with horse serum; assay: Antianaphylactic activity; format: in vivo
Procedure: Administration to […] of the test compound at a dosage of 60 mg/kg by the oral route or of 50 mg/kg by the intraperitoneal route inhibits the anaphylactic reaction and the death induced in guinea-pigs sensitized with horse serum.

[10] = Acute toxicity (LD50), method of Lichtfield and Wilcoxon, rats; settings: rat, in vivo

CC(C)(Oc1cccc2ccccc12)C(=O)Nc1ccc(C(=O)O)cc1 [Compound 1, p-[α-(α-naphthoxy)isobutyramido]benzoic acid]
inhibition of hepatic steatosis [1]: inhibits
inhibition of hypercholesterolemia [1]: inhibits
inhibition of paw oedema induced by dextran [2]: inhibits
inhibition of experimental phlogistic reaction [3]: inhibits
inhibition of paw oedema induced by carageenin [4]: inhibits
inhibition of hypercholesterolemia ([5]; 100 mg/kg intraperitoneal): inhibits
inhibition of hypercholesterolemia ([5]; 300 mg/kg oral): inhibits
intolerance and toxicity ([6]; 50 mg/kg, 3 months): did not induce any intolerance and any toxicity
blood, glycemia, transaminases, urinary excretion and azotemia ([6]; 50 mg/kg, 3 months, treated rats, beginning and end of treatment): failed to disclose any significant change or pathological modification
chronic toxicity (overall) ([6]; chronic toxicity tests): low toxicity
elimination of biliary pigments or cholesterol (choleresis): increase concerns the elimination of either the biliary pigments or cholesterol
choleresis (choleresis; intraperitoneal, 20 mg/kg): significant increase of choleresis
choleresis (choleresis; oral, 100 mg/kg): significant increase of choleresis
increase of the choleresis compared with dehydrocholic acid (choleresis; versus dehydrocholic acid): more substantial and more extended than that induced by dehydrocholic acid
inhibition of granulomatous reaction [7]: inhibits
LD50 ([8]; ip, intraperitoneal): 395 mg/kg
LD50 ([8]; oral): 2500 mg/kg
inhibition of anaphylactic reaction and death ([9]; 50 mg/kg intraperitoneal): inhibits
inhibition of anaphylactic reaction and death ([9]; 60 mg/kg oral): inhibits
LD50 ([10]; ip, intraperitoneal): 425 mg/kg
LD50 ([10]; oral): 2200 mg/kg
